Patent US12448369B2 (Edgewise Therapeutics, Inc., priority 2023, dated 2025)

Tested on: SD rats
Assay: Echocardiography of systolic cardiac performance (HR, FS, LV volumes, SWT) after a single oral dose
Type: in vivo
Details: Rattus norvegicus, single dose 10 mg/kg PO, ~2 hrs post-dosing, isoflurane-anesthetized, EDV change vs vehicle, read-out: EDV % vs. VEH
Description: Example 2. Echocardiogram Data
Experiments were performed to evaluate the in vivo ability of the compounds of the disclosure to modulate systolic cardiac performance. Non-invasively echocardiography was used to assess cardiac indicators in isoflurane-anesthetized SD rats. A set of conscious rats were treated with either vehicle control (0 mg/kg PO; n=78) or a single dose of a test compound (10 mg/kg PO, n=2 to 6/compound) via oral gavage. Cardiac function/geometry were recorded at two separate time-points/days: once prior to dosing (e.g., at baseline, day −2) and at ˜2 hrs post-dosing (day 0). In these experiments, heart rate (HR), echocardiography-derived indices of left-ventricular systolic performance, as well as dimensions/volumes were measured using a high-frequency transducer and parasternal long-axis transthoracic views (Vevo3100, VisualSonic). LV fractional shortening (FS), an index of systolic function, was defined as the end-diastole normalized change in internal dimensions divided by the difference in diameter (LVid) of the left ventricle between end-systole (LVids) and end-diastole (LVidd) (e.g., FS=100·[LVidd−LVids]/LVidd). LV volumes were derived using the Teichholz formula (LVV=[7·LVid^3]/[2.4+LVid]). In addition, a systolic wall-thickening index (SWT) was also evaluated. SWT is defined as the relative ratio (end-diastole normalized) of left-ventricular (anterior and posterior) wall-thickness change during systole; e.g., SWT={[(anterior LV wall thickness in systole−anterior LV wall thickness in diastole)]+[(posterior LV wall thickness in systole−posterior LV wall thickness in diastole)]}/{2*diastolic thickness}. In all cases, blood samples were taken (via either tail-vein micro-sampling or cardiac-puncture) at the time of each echocardiographic examination in order to establish pharmacokinetic (PK)/pharmacodynamics (PD) relationships.

Row | SMILES | change in vivo at 10 mg/kg [%]
1 | Cc1c(CC(=O)N[C@H](C)c2ncc(C#N)cc2F)c(=O)[nH]c2ccc(F)c(F)c12 [compound 41] | 1 to 20

Same assay, conditions: Rattus norvegicus, single dose 10 mg/kg PO, ~2 hrs post-dosing, isoflurane-anesthetized, LV fractional shortening change vs vehicle, read-out: FS % vs. VEH

Row | SMILES | change in vivo at 10 mg/kg [%]
2 | Cc1c(CC(=O)N[C@H](C)c2ncc(C#N)cc2F)c(=O)[nH]c2ccc(F)c(F)c12 [compound 41] | 1 to 20

Same assay, conditions: Rattus norvegicus, single dose 10 mg/kg PO, ~2 hrs post-dosing, isoflurane-anesthetized, SWT change vs vehicle, read-out: SWT % vs. VEH

Row | SMILES | change in vivo at 10 mg/kg [%]
3 | Cc1c(CC(=O)N[C@H](C)c2ncc(C#N)cc2F)c(=O)[nH]c2ccc(F)c(F)c12 [compound 41] | ≥ 21

Same assay, conditions: Rattus norvegicus, single dose 10 mg/kg PO, ~2 hrs post-dosing, isoflurane-anesthetized, heart rate change vs vehicle, read-out: HR % vs. VEH

Row | SMILES | change in vivo at 10 mg/kg [%]
4 | Cc1c(CC(=O)N[C@H](C)c2ncc(C#N)cc2F)c(=O)[nH]c2ccc(F)c(F)c12 [compound 41] | 1 to 20

Biological target: T1, Porcine ventricle myofibrils (ventricular myosin ATPase) (Sus scrofa, UniProt P79293)
T1 construct: Myofibrils from porcine cardiac muscle was isolated from the left ventricle of Yucatan minipigs; tissue Exemplar Genetics; host or cells: left ventricle of Yucatan minipigs, myofibrils prepared in house
Assay: Myofibril ATPase assay, porcine ventricle myofibrils
Type: biochemical, porcine (Yucatan minipigs)
Details: Y75 value (no ‡ mark); porcine ventricle myofibrils
Outline: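 Read-out: A340 kinetic, NADH consumption coupled to ADP via PK-LDH, 75 min. Yucatan minipig LV myofibrils, pCa buffer (PIPES/CaCl2/EGTA, pH 7.0). Linear-regression slope (mAU/min), vehicle = 100%, 4PL fit; Y75 or Y125 reported.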

T1 sequence (P79293 whole entry): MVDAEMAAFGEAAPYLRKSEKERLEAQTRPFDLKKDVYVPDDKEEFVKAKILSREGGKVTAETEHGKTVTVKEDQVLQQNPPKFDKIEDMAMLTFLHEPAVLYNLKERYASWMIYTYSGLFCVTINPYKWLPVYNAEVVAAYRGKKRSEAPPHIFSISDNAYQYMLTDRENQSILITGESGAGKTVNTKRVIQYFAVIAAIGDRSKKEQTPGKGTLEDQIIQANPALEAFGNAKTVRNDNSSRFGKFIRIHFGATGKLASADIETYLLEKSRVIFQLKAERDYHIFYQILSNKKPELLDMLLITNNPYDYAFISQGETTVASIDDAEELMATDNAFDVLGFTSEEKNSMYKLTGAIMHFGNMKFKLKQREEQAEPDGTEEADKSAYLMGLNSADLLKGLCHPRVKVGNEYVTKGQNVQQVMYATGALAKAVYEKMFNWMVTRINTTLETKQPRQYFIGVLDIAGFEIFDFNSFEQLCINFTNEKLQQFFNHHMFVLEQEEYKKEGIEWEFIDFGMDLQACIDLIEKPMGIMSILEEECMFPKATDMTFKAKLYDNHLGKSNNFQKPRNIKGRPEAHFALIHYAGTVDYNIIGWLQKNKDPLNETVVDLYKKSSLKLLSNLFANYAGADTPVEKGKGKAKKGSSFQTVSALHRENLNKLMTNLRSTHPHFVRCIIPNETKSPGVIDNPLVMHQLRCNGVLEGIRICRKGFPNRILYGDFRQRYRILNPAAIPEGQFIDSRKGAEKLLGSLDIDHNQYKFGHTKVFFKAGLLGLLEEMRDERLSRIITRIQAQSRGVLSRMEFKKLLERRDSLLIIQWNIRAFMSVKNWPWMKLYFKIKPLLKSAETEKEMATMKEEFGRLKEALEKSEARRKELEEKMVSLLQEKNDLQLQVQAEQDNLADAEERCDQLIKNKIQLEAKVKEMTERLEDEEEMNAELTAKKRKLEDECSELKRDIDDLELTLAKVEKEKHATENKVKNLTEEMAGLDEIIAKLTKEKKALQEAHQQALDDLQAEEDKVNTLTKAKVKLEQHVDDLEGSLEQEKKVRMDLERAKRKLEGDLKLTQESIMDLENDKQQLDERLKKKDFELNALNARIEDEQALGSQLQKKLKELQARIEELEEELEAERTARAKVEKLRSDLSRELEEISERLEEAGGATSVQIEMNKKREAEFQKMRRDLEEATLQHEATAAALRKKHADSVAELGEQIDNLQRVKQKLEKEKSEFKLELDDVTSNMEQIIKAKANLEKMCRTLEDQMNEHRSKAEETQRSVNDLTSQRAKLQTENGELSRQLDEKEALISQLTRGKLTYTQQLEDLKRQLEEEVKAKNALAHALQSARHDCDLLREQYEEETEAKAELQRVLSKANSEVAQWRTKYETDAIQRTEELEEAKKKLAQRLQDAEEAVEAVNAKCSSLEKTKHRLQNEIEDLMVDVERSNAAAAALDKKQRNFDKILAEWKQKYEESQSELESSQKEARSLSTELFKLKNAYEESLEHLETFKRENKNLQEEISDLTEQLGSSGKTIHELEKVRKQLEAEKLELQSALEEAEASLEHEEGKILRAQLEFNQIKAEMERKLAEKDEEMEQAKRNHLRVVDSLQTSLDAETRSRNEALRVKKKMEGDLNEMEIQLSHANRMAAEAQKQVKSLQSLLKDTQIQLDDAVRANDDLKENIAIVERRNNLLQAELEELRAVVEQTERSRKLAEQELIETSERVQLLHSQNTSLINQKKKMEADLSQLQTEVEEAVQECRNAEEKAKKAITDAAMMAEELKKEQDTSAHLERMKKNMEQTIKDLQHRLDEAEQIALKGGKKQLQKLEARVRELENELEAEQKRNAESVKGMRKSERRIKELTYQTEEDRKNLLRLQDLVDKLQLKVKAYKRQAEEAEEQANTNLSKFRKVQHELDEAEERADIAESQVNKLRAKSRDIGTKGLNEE

Row | SMILES | Ventricular EC25 [µM]
5 | Cc1c(CC(=O)N[C@H](C)c2ncc(C#N)cc2F)c(=O)[nH]c2ccc(F)c(F)c12 [compound 41] | 0.45
6 | Cc1c(CC(=O)N[C@H](C)c2ccc(C#N)cn2)c(=O)[nH]c2cc(F)c(F)cc12 [compound 1112] | 2.09
7 | Cc1c(CC(=O)N[C@H](C)c2cnc(C#N)cn2)c(=O)[nH]c2ccc(F)cc12 [compound 1108] | 1.44
8 | Cc1c(CC(=O)N[C@H](C)c2ncc(C#N)cn2)c(=O)[nH]c2ccc(F)c(C3CC3)c12 (single isomer, unassigned) [compound 2059] | 56.97
9 | Cc1c(CC(=O)N[C@@H](C)c2ccc(F)cn2)c(=O)[nH]c2cccc(F)c12 [compound 44] | 1.97
10 | CC(C(=O)N[C@@H](C)c1ccc(F)cc1F)c1c(C(F)(F)F)c2cc(F)ccc2[nH]c1=O (stereo partly shown) [compound 113] | 1.61
11 | Cc1c(F)ccc2[nH]c(=O)c(C(F)(F)C(=O)N[C@@H](C)c3ncc(C#N)cc3F)c(C)c12 (single isomer, unassigned) [compound 4812] | 0.18
12 | Cc1cc([C@H](C)NC(=O)Cc2c(C)c3cc(F)ccc3[nH]c2=O)ncc1F [compound 1061] | 100.00
13 | C[C@@H](NC(=O)Cc1c(C2CC2)c2cc(F)ccc2[nH]c1=O)c1ncc(C#N)cn1 (single isomer, unassigned) [compound 2063] | 100.00
14 | Cc1c(CC(=O)N[C@@H](C)c2ncc(C#N)cn2)c(=O)[nH]c2ccc(F)c(C3CC3)c12 (single isomer, unassigned) [compound 2060] | 3.02
15 | Cc1c(CC(=O)N[C@@H]2COc3cc(C#N)cnc32)c(=O)[nH]c2ccc(F)cc12 [compound 1062] | 6.56
16 | N#Cc1cnc2c(c1)COC[C@@H]2NC(=O)Cc1cc2cc(F)c(F)cc2[nH]c1=O [compound 1055] | 100.00

Same assay, conditions: porcine ventricle myofibrils; Y75 value

Row | SMILES | Ventricular EC25 [µM]
17 | Cc1nccc2[nH]c(=O)c([C@@H](C)C(=O)N[C@@H](C)c3ccc(C#N)cc3F)c(C)c12 (single isomer, unassigned) [compound 195] | 2.97
18 | Cc1ccc([C@@H](C)NC(=O)Cc2c(C)c3c(C)nccc3[nH]c2=O)cc1 (single isomer, unassigned) [compound 301] | 100.00

Tested on: Porcine atria myofibrils (atrial myosin ATPase)
Assay: Myofibril ATPase assay, porcine atria myofibrils
Type: biochemical
Details: Y75 value (no ‡ mark); porcine atria myofibrils
Outline: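 Coupled PK-LDH readout, NADH loss at 340 nm, kinetic 75 min. Porcine atria myofibrils, pCa buffer (PIPES/CaCl2/EGTA, pH 7.0). Slopes (mAU/min) normalized to vehicle = 100%, 4-parameter fit; Y75 or Y125 reported.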

Row | SMILES | Atrial EC25 [µM]
19 | Cc1c(CC(=O)N[C@H](C)c2ncc(C#N)cc2F)c(=O)[nH]c2ccc(F)c(F)c12 [compound 41] | 0.13
20 | Cc1c(CC(=O)N[C@H](C)c2ccc(C#N)cn2)c(=O)[nH]c2cc(F)c(F)cc12 [compound 1112] | 5.01
21 | Cc1c(CC(=O)N[C@H](C)c2cnc(C#N)cn2)c(=O)[nH]c2ccc(F)cc12 [compound 1108] | 6.47
22 | Cc1c(CC(=O)N[C@@H](C)c2ccc(F)cn2)c(=O)[nH]c2cccc(F)c12 [compound 44] | 0.21
23 | CC(C(=O)N[C@@H](C)c1ccc(F)cc1F)c1c(C(F)(F)F)c2cc(F)ccc2[nH]c1=O (stereo partly shown) [compound 113] | 0.10
24 | Cc1c(F)ccc2[nH]c(=O)c(C(F)(F)C(=O)N[C@@H](C)c3ncc(C#N)cc3F)c(C)c12 (single isomer, unassigned) [compound 4812] | 0.19
25 | Cc1cc([C@H](C)NC(=O)Cc2c(C)c3cc(F)ccc3[nH]c2=O)ncc1F [compound 1061] | 2.49
26 | C[C@@H](NC(=O)Cc1c(C2CC2)c2cc(F)ccc2[nH]c1=O)c1ncc(C#N)cn1 (single isomer, unassigned) [compound 2063] | 0.21
27 | Cc1c(CC(=O)N[C@@H](C)c2ncc(C#N)cn2)c(=O)[nH]c2ccc(F)c(C3CC3)c12 (single isomer, unassigned) [compound 2060] | 0.45
28 | Cc1c(CC(=O)N[C@@H]2COc3cc(C#N)cnc32)c(=O)[nH]c2ccc(F)cc12 [compound 1062] | 3.49
29 | N#Cc1cnc2c(c1)COC[C@@H]2NC(=O)Cc1cc2cc(F)c(F)cc2[nH]c1=O [compound 1055] | 100.00

Same assay, conditions: porcine atria myofibrils; Y75 value (75% activity relative to no compound)

Row | SMILES | Atrial EC25 [µM]
30 | Cc1nccc2[nH]c(=O)c([C@@H](C)C(=O)N[C@@H](C)c3ccc(C#N)cc3F)c(C)c12 (single isomer, unassigned) [compound 195] | 0.30
31 | Cc1ccc([C@@H](C)NC(=O)Cc2c(C)c3c(C)nccc3[nH]c2=O)cc1 (single isomer, unassigned) [compound 301] | 100.00

Same assay, conditions: ‡ Y125 value, not a Y75 value (125% activity relative to no compound); porcine atria myofibrils

Row | SMILES | Atrial EC25
32 | Cc1c(CC(=O)N[C@H](C)c2ncc(C#N)cn2)c(=O)[nH]c2ccc(F)c(C3CC3)c12 (single isomer, unassigned) [compound 2059] | 100.00‡ μM

Tested on: Rabbit Psoas myofibrils (skeletal myosin ATPase)
Assay: Myofibril ATPase assay, rabbit psoas (skeletal) myofibrils
Type: biochemical
Details: Y75 value (no ‡ mark); rabbit psoas myofibrils
Outline: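 Readout: A340 decline from NADH oxidation, PK/LDH-coupled to ADP release; kinetic reads over 75 min. Buffer: pCa (PIPES, CaCl2, EGTA), pH 7.0. Linear-regression slopes vs vehicle, 4PL fit; reported as concentration giving 75% (Y75) or 125% (Y125) of vehicle activity.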

Row | SMILES | Skeletal EC25 [µM]
33 | Cc1c(CC(=O)N[C@H](C)c2ncc(C#N)cc2F)c(=O)[nH]c2ccc(F)c(F)c12 [compound 41] | 0.07
34 | Cc1c(CC(=O)N[C@H](C)c2ccc(C#N)cn2)c(=O)[nH]c2cc(F)c(F)cc12 [compound 1112] | 3.86
35 | Cc1c(CC(=O)N[C@H](C)c2cnc(C#N)cn2)c(=O)[nH]c2ccc(F)cc12 [compound 1108] | 0.37
36 | Cc1c(CC(=O)N[C@H](C)c2ncc(C#N)cn2)c(=O)[nH]c2ccc(F)c(C3CC3)c12 (single isomer, unassigned) [compound 2059] | 1.09
37 | Cc1c(CC(=O)N[C@@H](C)c2ccc(F)cn2)c(=O)[nH]c2cccc(F)c12 [compound 44] | 0.05
38 | CC(C(=O)N[C@@H](C)c1ccc(F)cc1F)c1c(C(F)(F)F)c2cc(F)ccc2[nH]c1=O (stereo partly shown) [compound 113] | 0.04
39 | Cc1c(F)ccc2[nH]c(=O)c(C(F)(F)C(=O)N[C@@H](C)c3ncc(C#N)cc3F)c(C)c12 (single isomer, unassigned) [compound 4812] | 0.05
40 | Cc1cc([C@H](C)NC(=O)Cc2c(C)c3cc(F)ccc3[nH]c2=O)ncc1F [compound 1061] | 100.00
41 | C[C@@H](NC(=O)Cc1c(C2CC2)c2cc(F)ccc2[nH]c1=O)c1ncc(C#N)cn1 (single isomer, unassigned) [compound 2063] | 0.50
42 | Cc1c(CC(=O)N[C@@H](C)c2ncc(C#N)cn2)c(=O)[nH]c2ccc(F)c(C3CC3)c12 (single isomer, unassigned) [compound 2060] | 0.26
43 | Cc1c(CC(=O)N[C@@H]2COc3cc(C#N)cnc32)c(=O)[nH]c2ccc(F)cc12 [compound 1062] | 9.26
44 | N#Cc1cnc2c(c1)COC[C@@H]2NC(=O)Cc1cc2cc(F)c(F)cc2[nH]c1=O [compound 1055] | 18

Same assay, conditions: rabbit psoas myofibrils; Y75 value

Row | SMILES | Skeletal EC25 [µM]
45 | Cc1nccc2[nH]c(=O)c([C@@H](C)C(=O)N[C@@H](C)c3ccc(C#N)cc3F)c(C)c12 (single isomer, unassigned) [compound 195] | 0.11
46 | Cc1ccc([C@@H](C)NC(=O)Cc2c(C)c3c(C)nccc3[nH]c2=O)cc1 (single isomer, unassigned) [compound 301] | 100.00
